From patent publication US12109204B2, “Methods for treating muscular dystrophies” (The Regents of the University of California, priority 2018, dated 2024)
Entries after “also recorded” stand apart in the source; their conditions may differ.

How the values were obtained:
Format in all cases: cell-based, murine
[1] = system: hSSPN-EGFP myotubes (human sarcospan promoter reporter in C2C12); assay: hSSPN-EGFP reporter myotube assay (high-content imaging); conditions: for hSSPN-EGFP RFU, Plate 1 / hSSPN-EGFP RFU, Plate 2: retest of screen hits at 5.5 μM; for hSSPN-EGFP RFU, Plate 1: Plate 1, n=24 per plate; for hSSPN-EGFP RFU, Plate 2: Plate 2, n=24 per plate; for fluorescence intensity over vehicle, primary screen hit call: primary screen of 3,200 molecules, 5.5 μM, 48 hours, n=1, hit cutoff 1.4-fold
Procedure: (§1) C2C12 immortalized murine myoblasts cultured in growth media consisting of DMEM (Gibco) with 20% Fetal Bovine Serum (Sigma-Aldrich) at 37° C. with 5% CO2 were transfected with the hSSPN-EGFP or hSSPN-Luciferase linearized plasmids using Lipofectamine 3000 Transfection Reagent (Thermo Fisher Scientific). Transfected cells were selected using 800 μg/ml of G418 (Sigma-Aldrich) for 4 weeks to generate stable cell lines expressing reporter protein under control of the human SSPN promoter.
hSSPN-EGFP myoblasts were seeded at 500 cells per well in 50 μl of growth media in 384-well black, clear bottom microplates (Greiner) using a Multidrop 384 (Thermo Fisher Scientific) and incubated for 3 days. Upon reaching confluency, the growth media was replaced with 50 μl of differentiation media consisting of DMEM with 2% horse serum (Sigma-Aldrich) using an EL406 combination washer dispenser (Biotek). At day 2 of differentiation, the media on the cells was aspirated, left with a residual volume of 10 μl, and replaced with 30 μl of fresh differentiation media. 0.5 μl of small molecule in DMSO or DMSO alone (for vehicle and positive control wells) was added to each well using a Biomek Fx (Beckman). To ensure proper mixing of the DMSO, 50 μl of additional differentiation media was added to all wells except the positive control treated wells, which instead received 50 μl of media containing insulin transferrin selenium (ITS, Gibco) to reach a final concentration of 1% ITS. The final concentration of drug in each treated well was 5.5 μM in 0.55% DMSO and 0.55% DMSO for vehicle and positive control treated wells. After 48 hours of incubation, the media was replaced with Fluorobrite DMEM (Gibco) and each plate was imaged using ImageXpress Micro Confocal High Content Imaging System (Molecular Devices). The fluorescent intensity of imaged cells was determined using MetaXpress Analysis software (Molecular Devices). Analysis setting were as follows: top hat (size: 12, filter shape: circle), adaptive threshold (source: top hat, minimum width: 10, maximum width: 800, intensity above local background: 500), filter mask (filter type: minimum area filter, minimum value: 500). […]

[2] = system: hSSPN-Luciferase reporter cells (human sarcospan promoter reporter in C2C12); assay: hSSPN-Luciferase reporter assay (Bright-Glo); conditions: doses between 3.9 nm to 1 μM, 48 hours (FIG. 10b)
Procedure: as §1
hSSPN-Luciferase myoblasts were cultured as described above. After 48 hours of treatment, plates were allowed to equilibrate to room temperature before the media was aspirated using an EL406 combination washer dispenser at room temperature. Bright-Glo luciferase assay system reagent (Promega) and differentiation media were added to cells at a 1:2 dilution using a Multidrop 384. After a 3-minute incubation at room temperature, luminescence signal was quantified using an Envision plate reader (PerkinElmer). The relative luminescence units were analyzed to determine fold change of treated over vehicle treated cells.
Cells were treated for 48 hours beginning at day 2 of differentiation with DMSO (vehicle control, ATCC), felodipine (Sigma), nilvadipine (Sigma), alloxazine (Sigma), GW5074 (Sigma), methylthioadenosine (Santa Cruz Biotechnology), or ezutromid (Cayman Chemicals) diluted in cell type specific differentiation media at doses listed in the figures. For gene expression studies, each treatment was performed in duplicate. For protein studies, each treatment was performed with single or double replicates.

[3] = system: hSSPN-EGFP myotubes (human sarcospan promoter reporter in C2C12); assay: hSSPN-EGFP reporter myotube assay (high-content imaging); conditions: for hSSPN-EGFP reporter activity, counterscreen: doses between 3.9 nm to 1 μM, 48 hours (FIG. 10a); for hit call in an earlier assay: no details given
SSPN, sarcospan = assay: SSPN gene expression by qPCR in C2C12 wild-type myotubes; conditions: 48h, normalized to GAPDH, n=2 (FIG. 11b), felodipine 10 μM
Procedure: (§2) RNA from myotubes treated for 48 hours was extracted from cells using Trizol-based (Thermo Fisher Scientific) phase separation. RNA concentrations were determined using a NanoDrop 1000 (Thermo Fisher Scientific) and 750 ng of RNA in a 20 μl reaction was reverse transcribed using iScript cDNA synthesis (Bio-Rad) with the following cycling conditions: 25° C. for 5 minutes, 42° C. for 30 minutes, 85° C. for 5 minutes. For quantitative PCR, SsoFast EvaGreen Supermix (Bio-Rad), 400 nM of each optimized forward and reverse primer (for primer descriptions see Table 1), and cDNA corresponding to 37.5 ng RNA were used to amplify cDNA measured by Applied Biosystems 7300 (Thermo Fisher Scientific) with the following reaction conditions: 55° C. for 2 minutes, 95° C. for 2 minutes, 40 cycles of 95° C. for 10 seconds and 62° C. for 30 seconds, and dissociation stage. Each sample was run in triplicate. Data was analyzed using the ddCT method and normalized to reference gene, GAPDH or β-actin, with vehicle-treated samples serving as the calibrator (relative expression of vehicle control=1). C2C12 cells (American Type Culture Collection) were grown at 37° C. with 5% CO2 in growth media containing DMEM (Gibco) with 20% FBS (Sigma-Aldrich). Upon reaching confluency, the media was replaced with differentiation media containing DMEM with 2% horse serum (Sigma-Aldrich). Conditionally immortalized H2K mdx myoblast cells with a nonsense mutation in exon 23 of dystrophin were a gift from Terrance Partridge, Ph.D. (Children's National Medical Center, Washington, D.C.). Cells were allowed to proliferate on 0.01% gelatin (Sigma-Aldrich) coated plates at 33° C. with 5% CO2 with growth media containing DMEM, 20% HI-FBS (Invitrogen), 2% L-glutamine (Sigma-Aldrich), 2% chicken embryo extract (Accurate Chemical), 1% penicillin-streptomycin (Sigma-Aldrich), and 20U/ml of fresh interferon gamma (Gibco). For differentiation, H2K mdx myoblasts were seeded on plates coated with 0.1 mg/ml matrigel (Corning) diluted in DMEM and grown in proliferation conditions. […]

UTRN, utrophin = assay: UTRN gene expression by qPCR in C2C12 wild-type myotubes; conditions: C2C12 myotubes, 48h, normalized to GAPDH, n=2 (FIG. 11a); felodipine 10 μM
Procedure: as §2, with “(Sigma-Aldrich).” for “(Sigma-Aldrich). Conditionally immortalized H2K mdx myoblast cells with a nonsense mutation in exon 23 of dystrophin were a gift from Terrance Partridge, Ph.D. (Children's National Medical Center, Washington, D.C.). Cells were allowed to proliferate on 0.01% gelatin (Sigma-Aldrich) coated plates at 33° C. with 5% CO2 with growth media containing DMEM, 20% HI-FBS (Invitrogen), 2% L-glutamine (Sigma-Aldrich), 2% chicken embryo extract (Accurate Chemical), 1% penicillin-streptomycin (Sigma-Aldrich), and 20U/ml of fresh interferon gamma (Gibco). For differentiation, H2K mdx myoblasts were seeded on plates coated with 0.1 mg/ml matrigel (Corning) diluted in DMEM and grown in proliferation conditions.”

| SMILES | hSSPN-EGFP RFU, Plate 1 [1] | hSSPN-EGFP RFU, Plate 2 [1] | fluorescence intensity over vehicle, primary screen hit call [1] | hSSPN-Luciferase reporter activity, counterscreen [2] | hSSPN-EGFP reporter activity, counterscreen [3] | hit call in an earlier assay [3] | SSPN gene expression relative to vehicle (SSPN, sarcospan) | UTRN gene expression relative to vehicle (UTRN, utrophin) |
| --- | --- | --- | --- | --- | --- | --- | --- | --- |
| CCCCN1CCCC1CNC(=O)c1cc(C#N)c2ccccc2c1OC (centres unmarked) [Nafadotride, N-[(1-butylpyrrolidin-2-yl)methyl]-4-cyano-1-methoxynaphthalene-2-carboxamide] | 1.1 RFU | 1.0 RFU |  |  |  |  |  |  |
| O=c1[nH]c(=O)c2nc3ccccc3nc2[nH]1 [Alloxazine, 1H-benzo[g]pteridine-2,4-dione] | 1.0 RFU | 1.1 RFU | hits | increased activity | increased activity |  |  |  |
| O=C1Nc2ccc(I)cc2/C1=C/c1cc(Br)c(O)c(Br)c1 [GW5074, (3Z)-3-[(3,5-dibromo-4-hydroxyphenyl)methylidene]-5-iodo-1H-indol-2-one] | 1.2 RFU | 1.2 RFU | hits | increased activity | increased activity |  |  |  |
| CCOC(=O)C1=C(C)NC(C)=C(C(=O)OCC)C1c1ccccc1/C=C/C(=O)OC(C)(C)C [Lacidipine, diethyl 2,6-dimethyl-4-[2-[(E)-3-[(2-methylpropan-2-yl)oxy]-3-oxoprop-1-enyl]phenyl]-1,4-dihydropyridine-3,5-dicarboxylate] | 1.3 RFU | 1.2 RFU | hits |  |  |  |  |  |
| COC(=O)C1=C(C#N)NC(C)=C(C(=O)OC(C)C)C1c1cccc([N+](=O)[O-])c1 (centres unmarked) [Nilvadipine, 3-O-methyl 5-O-propan-2-yl 2-cyano-6-methyl-4-(3-nitrophenyl)-1,4-dihydropyridine-3,5-dicarboxylate] | 1.6 RFU | 1.5 RFU | hits | increased activity | increased activity |  |  |  |
| COC(=O)N=N/C=C1\C=[N+]([O-])c2ccccc2N1O [Carbodox, methyl N-[(E)-(1-hydroxy-4-oxidoquinoxalin-4-ium-2-ylidene)methyl]iminocarbamate] | 1.1 RFU | 1.1 RFU |  |  |  |  |  |  |
| CC[n+]1c(C=CC=C2N(C)c3ccccc3C2(C)C)sc2ccccc21.[I-] [AC-93253, 2-[3-(1,3-Dihydro-1,3,3-trimethyl-2H-indol-2-ylidene)-1-propenyl]-3-ethyl-benzothiazolium iodide] |  |  |  |  |  | among the hits |  |  |
| COC(=O)C1=C(C)NC(C)=C(C(=O)OC)C1c1ccccc1[N+](=O)[O-] [Nifedipine, dimethyl 2,6-dimethyl-4-(2-nitrophenyl)-1,4-dihydropyridine-3,5-dicarboxylate] | 1.3 RFU | 1.0 RFU | hits |  |  |  |  |  |
| CC(C)NCC(O)c1ccc(O)c(O)c1 (centres unmarked) [Isoproterenol, 4-[1-hydroxy-2-(propan-2-ylamino)ethyl]benzene-1,2-diol] | 1.1 RFU | 1.1 RFU | hits |  |  |  |  |  |
| CSC[C@H]1O[C@@H](n2cnc3c(N)ncnc32)[C@H](O)[C@@H]1O [methylthioadenosine, (2R,3R,4S,5S)-2-(6-aminopurin-9-yl)-5-(methylsulfanylmethyl)oxolane-3,4-diol] |  |  |  | increased activity | increased activity | among the hits |  |  |
| C[C@]12CC[C@H]3[C@@H](CCC4=CC(=O)CC[C@@H]43)[C@@H]1CC[C@@H]2O [Nandrolone, (8R,9S,10R,13 S,14S,17S)-17-hydroxy-13-methyl-2,6,7,8,9,10,11,12,14,15,16,17-dodecahydro-1H-cyclopenta[a]phenanthren-3-one] | 1.2 RFU | 1.1 RFU | hits |  |  |  |  |  |
| CCS(=O)(=O)c1ccc2oc(-c3ccc4ccccc4c3)nc2c1 [ezutromid] |  |  |  |  |  |  | did not significantly increase SSPN gene expression; also recorded: did not significantly increase sarcospan levels | did not significantly increase UTRN levels; also recorded: did not increase utrophin gene expression |
| COC(=O)C1=C(C)NC(C)=C(C(=O)OC(C)C)C1c1cccc2nonc12 (centres unmarked) [Isradipine, 3-O-methyl 5-O-propan-2-yl 4-(2,1,3-benzoxadiazol-4-yl)-2,6-dimethyl-1,4-dihydropyridine-3,5-dicarboxylate] | 1.5 RFU | 1.4 RFU | hits |  |  |  |  |  |
| CC(=O)OC1CN2CCC1CC2 (centres unmarked) [Aceclidine, 1-Azabicyclo[2.2.2]oct-3-yl acetate] | 1.1 RFU | 1.1 RFU |  |  |  |  |  |  |
| Nc1nc(=O)c2ncn(COCCO)c2[nH]1 [Acyclovir, 2-amino-9-(2-hydroxyethoxymethyl)-3H-purin-6-one] | 0.9 RFU | 1.0 RFU |  |  |  |  |  |  |
